From patent US20060069132A1, “Azolecarboxamide herbicides” (priority 2004, published 2006)

Legend:
ducksalad = experiment: Test C flooded paddy test; format: in vivo, Heteranthera limosa; settings: for Plant response rating, Ducksalad: visual rating after 12 to 14 days
morningglory = experiment: Test A pre-/postemergence herbicide test; format: in vivo, Ipomoea spp.
Method in brief: (§1)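 Pre: seeded sandy loam, directed soil spray, compound in non-phytotoxic solvent + surfactant. Post: 1–2-leaf plants (2–10 cm), sprayed to runoff. Greenhouse ~10 d; visual injury vs untreated, 0–100 scale.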

barnyardgrass = experiment: Test C flooded paddy test; format: in vivo, Echinochloa crus-galli; settings: for Plant response rating, Barnyardgrass: visual rating after 12 to 14 days
Method in brief: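 Plants were grown to the 1- to 4-leaf stage (2–18 cm) and then treated postemergence, or grown to the 2-leaf stage for the flooded paddy test. They were held in a greenhouse for 12 to 14 days and then scored by eye against controls, where 0 is no effect and 100 is complete control.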

velvetleaf = experiment: Test A pre-/postemergence herbicide test; format: in vivo, Abutilon theophrasti
Method in brief: as §1

[1] = 62 g ai/ha, scale 0 to 100 (0 no effect, 100 complete control)
[2] = 125 g ai/ha, scale of 0 to 100, 0 is no effect, 100 is complete control
[3] = 250 g ai/ha, scale 0 to 100 (0 no effect, 100 complete control)
[4] = 500 g ai/ha, scale 0 to 100 (0 no effect, 100 complete control)
[5] = Postemergence, 500 g ai/ha, 0 to 100 scale, 0 no effect, 100 complete control
[6] = Postemergence, 2000 g ai/ha, 0 to 100 scale, 0 no effect, 100 complete control
[7] = Preemergence, 500 g ai/ha, visual rating, 0 to 100 scale (0 no effect, 100 complete control)
[8] = Preemergence, 2000 g ai/ha, 0 to 100 scale, 0 no effect, 100 complete control
[9] = 250 g ai/ha, scale of 0 to 100, 0 is no effect, 100 is complete control
[10] = Postemergence, 125 g ai/ha, 0 to 100 scale, 0 no effect, 100 complete control
[11] = preemergence, 125 g ai/ha, visual injury, 0 to 100 scale (0 no effect, 100 complete control)
[12] = Preemergence, 2000 g ai/ha, visual rating, 0 to 100 scale (0 no effect, 100 complete control)
[13] = preemergence, 500 g ai/ha, visual injury, 0 to 100 scale (0 no effect, 100 complete control)
[14] = 125 g ai/ha, scale 0 to 100 (0 no effect, 100 complete control)

SMILES	Ducksalad plant response rating (ducksalad; [1])	Plant response rating, Ducksalad (ducksalad; [4])	Plant response rating, Morningglory (morningglory; [6])	Morningglory plant response rating (morningglory; [7])	Barnyardgrass plant response rating (barnyardgrass; [1])	Barnyardgrass plant response rating (barnyardgrass; [2])	Plant response rating, Barnyardgrass (barnyardgrass; [4])	Plant response rating, Velvetleaf (velvetleaf; [6])	Ducksalad plant response rating (ducksalad; [9])	Barnyardgrass plant response rating (barnyardgrass; [9])	Morningglory plant response rating (morningglory; [5])	Morningglory plant response rating (morningglory; [12])	Velvetleaf plant response rating (velvetleaf; [5])	Velvetleaf plant response rating (velvetleaf; [12])	Velvetleaf plant response rating (velvetleaf; [13])	Ducksalad plant response rating (ducksalad; [14])	Morningglory plant response rating (morningglory; [13])	Barnyardgrass plant response rating (barnyardgrass; [14])	Ducksalad plant response rating (ducksalad; 62 g ai/ha, scale 0 to 100)	other results
CCn1nc(C(C)(C)C)cc1C(=O)Nc1cccc(C(=O)NCCF)c1 [Compound 45]	0	60	25	15	25	30	80	65												Ducksalad plant response rating (ducksalad; [2]): 0; Plant response rating, Ducksalad (ducksalad; [3]): 60; Plant response rating, Morningglory (morningglory; [5]): 25; Morningglory plant response rating (morningglory; [8]): 75; Plant response rating, Barnyardgrass (barnyardgrass; [3]): 60; Velvetleaf plant response rating (velvetleaf; [7]): 25; Velvetleaf plant response rating (velvetleaf; [8]): 65
CCn1nc(C(C)(C)C)cc1C(=O)Nc1cccc(C(=O)NC(C)C)c1 [Compound 51]	0	85		15	0	0	75		75	20										Ducksalad plant response rating (ducksalad; [2]): 55; Morningglory plant response rating (morningglory; [10]): 10; Plant response rating, Morningglory (morningglory; [5]): 35; Morningglory plant response rating (morningglory; [11]): 10; Velvetleaf plant response rating (velvetleaf; [10]): 40; Velvetleaf plant response rating (velvetleaf; [7]): 100; Velvetleaf plant response rating (velvetleaf; [11]): 20
CCn1nc(C(C)(C)C)cc1C(=O)Nc1cccc(C(C)=O)c1 [Compound 122]	50	80	65	25	20	50	80	70	80	60	30	30	45	70	40					Ducksalad plant response rating (ducksalad; [2]): 80
CCOc1cccc(NC(=O)c2cc(C(C)(C)C)nn2CC)c1 [Compound 136]	0	90	40	20	20	25	80	75	45	40	20	45	55	30	25	0				
CCn1nc(C(C)(C)C)cc1C(=O)Nc1cccc(OCCCF)c1 [Compound 138]	0	70	40	15	0	0	30	60	55	15	15	45	20	50	20	20				
CCn1nc(C(C)(C)C)cc1C(=O)Nc1cc(C(=O)NCC2CC2)ccn1 [Compound 155]	45	90			0	25	65		85	50						80				
CCc1nc(C(C)(C)C)sc1C(=O)Nc1cccc(C(=O)NCCF)c1 [Compound 209]	65	80	15		0		80	20	65	70	0	40	10	75	10	65	20	55		
CCc1nc(C(C)(C)C)sc1C(=O)Nc1cccc(C(=O)NC(C)(C)C)n1 [Compound 216]	0	40	20		0		30	35	30	0	20	15	25	30	10	20	0	0		
CCNC(=O)c1ccc(F)c(NC(=O)c2cc(C(C)(C)C)nn2CC)n1 [Compound 278]		20	5		0		25	25	0	0	10	25	20	35	20	0	10	0	0	
CCn1nc(C(C)(C)C)cc1C(=O)Nc1nc(C(=O)N2CC=CC2)ccc1F [Compound 281]		85	15		0		65	40	70	30	10	25	35	35	10	0	5	20	0	
C#CCNC(=O)c1cc(NC(=O)c2cc(C(C)(C)C)nn2CC)ccn1 [Compound 283]		0	0		0		10	35	0	0	0	10	15	15	0	0	0	0	0	
CCn1nc(C(C)(C)C)cc1C(=O)Nc1cncc(C(=O)N2CC=CC2)n1 [Compound 290]		70	30		0		40	30	45	25	20	40	20	30	15	0	10	0	0	
CCn1nc(C(C)(C)C)cc1C(=O)Nc1cccc(OS(=O)(=O)CC)c1 [Compound 408]		95			20		70		95	60						85		45	65	
